Measured values reported in patent US6943183B2 (Pfizer Inc, priority 2000, dated 2005).

Biological target: T1, SF9 affinity purified rat FPT (Rattus norvegicus, UniProt Q02293+Q04631)
T1 construct: made in house; host or cells: Sf9 insect cells
Test: PFT (FPT) inhibitory activity assay, radiolabeled farnesyl pyrophosphate and biotinyl peptide, streptavidin beads
Type: biochemical
Conditions: HEPES buffer pH 7.4, 30° C., 30 minutes; read-out: FTase IC50
Method in brief: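 Rat FPT expressed in SF9 cells was incubated 30 minutes at 30° C. with compound (in 10% DMSO), radiolabeled farnesyl pyrophosphate and biotinylated peptide. Buffer: HEPES pH 7.4, ZnCl2 20 μM, MgCl2 and DTT 5 mM each, 0.1% PEG 8000, 5 mM potassium phosphate (also run without phosphate). Product captured on streptavidin beads in magnesium acetate/H3PO4 stop buffer.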

O=C1CCCc2c1ccc(O[C@H](Cn1ccnc1)c1ccccc1)c2COc1ccccc1 [Compound 66, 6-((1S)-2-Imidazolyl-1-phenylethoxy)-5-(phenoxymethyl)-2,3,4-trihydronaphthalen-1-one]
IC50: 12 nM

CC(C)(C)c1cccc(OCc2c(O[C@H](Cn3ccnc3)c3ccccc3)ccc3c2CCCC3=O)c1 [Compound 67]
IC50: 1 nM

O=C1CCCc2c1ccc(O[C@H](Cn1ccnc1)c1ccccc1)c2COc1cccc(Cl)c1 [Compound 69]
IC50: 0.7 nM

Cc1ccc(C(C)C)cc1OCc1c(O[C@H](Cn2ccnc2)c2ccccc2)ccc2c1CCCC2=O [Compound 70]
IC50: 7 nM

COc1cc(OC)cc(OCc2c(O[C@H](Cn3ccnc3)c3ccccc3)ccc3c2CCCC3=O)c1 [Compound 71, 6-((1S)-2-imidazolyl-1-phenylethoxy)-5-[(3,5-dimethoxyphenoxy)methyl]-2,3,4-trihydronaphthalen-1-one]
IC50: 4 nM

CC(C)c1ccc(OCc2c(O[C@H](Cn3ccnc3)c3ccccc3)ccc3c2CCCC3=O)cc1 [Compound 72]
IC50: 5 nM

O=C1CCCc2c1ccc(O[C@H](Cn1ccnc1)c1ccccc1)c2COc1ccc2c(c1)CCCC2 [Compound 73, 6-((1S)-2-Imidazolyl-1-phenylethoxy)-5-(2-5,6,7,8-tetrahydro-naphthyloxymethyl)-2,3,4-trihydronaphthalen-1-one]
IC50: 2 nM

CC(C)c1cccc(OCc2c(O[C@H](Cn3ccnc3)c3ccccc3)ccc3c2CCCC3=O)c1 [Compound 74]
IC50: 3 nM

O=C1CCCc2c1ccc(O[C@H](Cn1ccnc1)c1ccccc1)c2COc1cccc2[nH]ccc12 [Compound 76, 6-((1S)-2-Imidazolyl-1-phenylethoxy)-5-(indol-4-yloxymethyl)-2,3,4-trihydronaphthalen-1-one]
IC50: 1 nM

CCOc1ccccc1OCc1c(O[C@H](Cn2ccnc2)c2ccccc2)ccc2c1CCCC2=O [Compound 78, 6-((1S)-2-Imidazolyl-4-phenylethoxy)-5-[(2-ethoxyphenoxy)methyl]-2,3,4-trihydronaphthalen-1-one]
IC50: 0.8 nM

CCOc1ccc(OCc2c(O[C@H](Cn3ccnc3)c3ccccc3)ccc3c2CCCC3=O)cc1 [Compound 79]
IC50: 0.8 nM

COC(=O)c1ccccc1OCc1c(O[C@H](Cn2ccnc2)c2ccccc2)ccc2c1CCCC2=O [Compound 81, Methyl 2-{[2-((1S)-2-imidazolyl-1-phenylethoxy)-5-oxo-6,7,8-trihydronaphthyl]methoxy}benzoate]
IC50: 4 nM

Cc1ccc(OCc2c(O[C@H](Cn3ccnc3)c3ccccc3)ccc3c2CCCC3=O)cn1 [Compound 82]
IC50: 9 nM

Cc1ccc(OCc2c(O[C@H](Cn3ccnc3)c3ccccc3)ccc3c2CCCC3=O)cn1 [Compound 83, 6-((1S)-2-imidazolyl-1-phenylethoxy)-5-[(6-methyl(3-pyridyloxy))methyl]-2,3,4-trihydronaphthalen-1-one]
IC50: 18 nM

O=C1CCCc2c1ccc(O[C@H](Cn1ccnc1)c1ccccc1)c2COc1ccc2ccccc2c1 [Compound 85]
IC50: 10 nM

COC(=O)c1cccc(OCc2c(O[C@H](Cn3ccnc3)c3ccccc3)ccc3c2CCCC3=O)c1 [Compound 88, Methyl 3-{[2-((1S)-2-imidazolyl-1-phenylethoxy)-5-oxo-6,7,8-trihydronaphthyl]methoxy}benzoate]
IC50: 7 nM

Cc1cc(C)c(OCc2c(O[C@H](Cn3ccnc3)c3ccccc3)ccc3c2CCCC3=O)c(C)c1 [Compound 89, 6-((1S)-2-Imidazolyl-1-phenylethoxy)-5-[(2,4,6-trimethylphenoxy)methyl]-2,3,4-trihydronaphthalen-1-one]
IC50: 7 nM

O=C1CCCc2c1ccc(O[C@H](Cn1ccnc1)c1ccccc1)c2COc1ccc2c(c1)OCO2 [Compound 92, 6-((1S)-2-imidazolyl-1-phenylethoxy)-5-(2H-benzo[d]1,3-dioxolan-5-yloxymethyl)-2,3,4-trihydronaphthalen-1-one]
IC50: 4 nM

O=C1CCCc2c1ccc(O[C@H](Cn1ccnc1)c1ccccc1)c2COc1ccc2c(c1)OCO2 [Compound 93, 6-((1S)-2-Imidazolyl-1-phenylethoxy)-5-(2H-benzo[d]1,3-dioxolan-5-yloxymethyl)-2,3,4-trihydronaphthalen-1-one]
IC50: 3 nM

O=C1CCCc2c1ccc(O[C@H](Cn1ccnc1)c1ccccc1)c2COc1cccc2cccnc12 [Compound 94]
IC50: 3 nM

O=C1CCCc2c1ccc(O[C@H](Cn1ccnc1)c1ccccc1)c2COc1ccc(OC(F)(F)F)cc1 [Compound 96, 6-((1S)-2-Imidazolyl-1-phenylethoxy)-5-{[4-(trifluoromethoxy)phenoxy]methyl}-2,3,4-trihydronaphthalen-1-one]
IC50: 5 nM

O=C1CCCc2c1ccc(O[C@H](Cn1ccnc1)c1ccccc1)c2COc1ccc(Oc2ccccc2)cc1 [Compound 97]
IC50: 6 nM

Cc1cccc(OCc2c(O[C@H](Cn3ccnc3)c3ccccc3)ccc3c2CCCC3=O)c1 [Compound 99]
IC50: 5 nM

Cc1ccc(OCc2c(O[C@H](Cn3ccnc3)c3ccccc3)ccc3c2CCCC3=O)cc1 [Compound 100]
IC50: 4 nM

O=C1CCCc2c1ccc(O[C@H](Cn1ccnc1)c1ccccc1)c2COc1ccccc1F [Compound 101]
IC50: 3 nM

O=C1CCCc2c1ccc(O[C@H](Cn1ccnc1)c1ccccc1)c2COc1cccc(F)c1 [Compound 102]
IC50: 5 nM

O=C1CCCc2c1ccc(O[C@H](Cn1ccnc1)c1ccccc1)c2COc1ccc(F)cc1 [Compound 103, 6-((1S)-2-Imidazolyl-1-phenylethoxy)-5-[(4-fluorophenoxy)methyl]-2,3,4-trihydronaphthalen-1-one]
IC50: 5 nM

O=C1CCCc2c1ccc(O[C@H](Cn1ccnc1)c1ccccc1)c2COc1cccc2ccccc12 [Compound 104, 6-((1S)-2-Imidazolyl-1-phenylethoxy)-5-(naphenyloxymethyl)-2,3,4-trihydronaphthalen-1-one]
IC50: 5 nM

COc1cccc(OCc2c(O[C@H](Cn3ccnc3)c3ccccc3)ccc3c2CCCC3=O)c1 [Compound 105, 6-((1S)-2-Imidazolyl-1-phenylethoxy)-5-[(3-methoxyphenoxy)methyl]-2,3,4-trihydronaphthalen-1-one]
IC50: 5 nM

O=C1CCCc2c1ccc(O[C@H](Cn1ccnc1)c1ccccc1)c2COc1ccccc1Cl [Compound 106]
IC50: 6 nM

O=C1CCCc2c1ccc(O[C@H](Cn1ccnc1)c1ccccc1)c2COc1ccc2ncccc2c1 [Compound 107, 6-((1S)-2-Imidazolyl-1-phenylethoxy)-5-(6-quinolyloxymethyl)-2,3,4-trihydronaphthalen-1-one]
IC50: 10 nM

O=C1CCCc2c1ccc(O[C@H](Cn1ccnc1)c1ccccc1)c2COc1ccc2ncccc2c1 [Compound 108, 6-((1S)-2-Imidazolyl-1-phenylethoxy)-5-(6-quinolyloxymethyl)-2,3,4-trihydronaphthalen-1-one]
IC50: 3 nM

O=C1CCCc2c1ccc(O[C@H](Cn1ccnc1)c1ccccc1)c2CSc1ccc(Br)cc1 [Compound 109, 6-((1S)-2-Imidazolyl-1-phenylethoxy)-5-[(4-bromophenylthio)methyl]-2,3,4-trihydronaphthalen-1-one]
IC50: 30 nM

O=C1CCCc2c1ccc(O[C@H](Cn1ccnc1)c1ccccc1)c2CSC1CCCCC1 [Compound 117]
IC50: 1 nM

O=C(O)c1cccnc1SCc1c(O[C@H](Cn2ccnc2)c2ccccc2)ccc2c1CCCC2=O [Compound 126, 2-{[2-((1S)-2-Imidazolyl-1-phenylethoxy)-5-oxo-6,7,8-trihydronaphenyl]methylthio}pyridine-3-carboxylic acid]
IC50: 19 nM

COc1ccc([S+]([O-])Cc2c(O[C@H](Cn3ccnc3)c3ccccc3)ccc3c2CCCC3=O)cc1 (stereo partly drawn) [Compound 141, 6-((S)-2-Imidazol-1-yl-1-phenyl-ethoxy)-5-(4-methoxy-benzenesulfinylmethyl)-3,4-dihydro-2H-napthalen-1-one]
IC50: 0.35 nM

CC(=O)N(Cc1c(O[C@H](Cn2ccnc2)c2ccccc2)ccc2c1CCCC2=O)c1ccc(C)cc1 [Compound 144, N-[2-((S)-2-Imidazol-1-yl-1-phenyl-ethoxy)-5-oxo-5,6,7,8-tetrahydro-naphthalen-1-ylmethyl]-N-β-tolyl-acetamide]
IC50: 35 nM

O=C1CCCc2c1ccc(O[C@H](Cn1ccnc1)c1ccccc1)c2CNc1ccc2[nH]ncc2c1 [Compound 145]
IC50: 16 nM

O=C1CCCc2c1ccc(O[C@H](Cn1ccnc1)c1ccccc1)c2CN1CCN(c2ccccc2)CC1 [Compound 146, 6-((S)-2-Imidazol-1-yl-1-phenyl-ethoxy)-5-(4-phenyl-piperazin-1-ylmethyl)-3,4-dihydro-2H-napthalen-1-one]
IC50: 34 nM

O=C1CCCc2c1ccc(O[C@H](Cn1ccnc1)c1ccccc1)c2CN1CCN(c2ccccn2)CC1 [Compound 147, 6-((S)-2-Imidazol-1-yl-1-phenyl-ethoxy)-5-(4-pyridin-2-yl-piperazin-1-ylmethyl)-3,4-dihydro-2H-napthalen-1-one]
IC50: 19 nM

O=C1CCCc2c1ccc(O[C@H](Cn1ccnc1)c1ccccc1)c2CNc1cccc2cccnc12 [Compound 148, 6-((S)-2-Imidazol-1-yl-1-phenyl-ethoxy)-5-(quinolin-8-ylaminomethyl)-3,4-dihydro-2H-napthalen-1-one]
IC50: 5.3 nM

N#Cc1ccccc1NCc1c(O[C@H](Cn2ccnc2)c2ccccc2)ccc2c1CCCC2=O [Compound 149, 2-{[2-((S)-2-Imidazol-1-yl-1-phenyl-ethoxy)-5-oxo-5,6,7,8-tetrahydro-napthalen-1-ylmethyl]-amino}-benzonitrile]
IC50: 3 nM

O=C1CCCc2c1ccc(O[C@H](Cn1ccnc1)c1ccccc1)c2CNc1ccc(Br)cc1 [Compound 150, 5-[(4-Bromo-phenylamino)-methyl]-6-((S)-2-imidazol-1-yl-1-phenyl-ethoxy)-3,4-dihydro-2H-napthalen-1-one]
IC50: 16 nM
